Test results: patent US8877747B2, “Indenone derivative and pharmaceutical composition comprising same” (Korea Research Institute of Chemical Technology, priority 2009, dated 2014)

These compounds were tested on MC3T3-E1 cells (assay: ALP activity, differentiation of osteoblast cells). Settings: Mus musculus, MC3T3-E1, 144 h; MC3T3E1 cells treated with 10 μM compound and OF; relates activity to OF-only group (100%); higher = more efficacious.
Type: cell-based
Procedure: To examine the effects of the inventive indenone derivatives on the differentiation and activation of osteoblast cells, the activity and expression of alkaline phosphatase (ALP), a marker for the differentiation of osteoblast cells, and the bone nodule formation using a mouse derived osteoblast-like cells, MC3T3-E1 (ATCC, Japan) or a primary mouse calvaria derived preosteoblastic cells were observed.
MC3T3-E 1 cells were seeded in a medium containing osteogenic factors (OF) such as ascorbic acids and β-glycerophosphates (b-GP), and each compound of Examples was added thereto at a concentration of 0.1, 1 and 10 μM. The cells were incubated for 6 days (MC3T3-E1 cells) or 7 days (primary mouse calvaria derived preosteoblastic cells) in a 37° C. CO2 incubator. Then, the culture medium was replaced with a fresh medium together with the test compound every two or three days. On the last day, the medium was centrifuged to remove the supernatant, and the cells were washed with PBS. The washed cells were subjected to a 3-cycle freege-thaw treatment using a −70° C. deep freezer to allow enzymes elute in a lysis buffer. The lysed protein was quantified, followed by measurement of ALP activity using 4-nitrophenylphosphate.
Further, a group treated only with DMSO or OF was tested for ALP activities for comparison.

Row | SMILES | activity at 10 µM
1 | COc1ccc(C2=C(c3ccccc3)c3ccc(OCCN4CCOCC4)cc3C2=O)cc1F [Example 2, 6-(2-morpholinoethoxy)-2-(3-fluoro-4-methoxyphenyl)-3-phenyl-1H-inden-1-one] | 221%
2 | O=C1C(c2cnc3ccccc3c2)=C(c2ccccc2)c2ccc(OCCN3CCOCC3)cc21 [Example 3, 6-(2-morpholinoethoxy)-3-phenyl-2-(quinolin-3-yl)-1H-inden-1-one] | 216%
3 | NC(=O)c1ccc(C2=C(c3ccccc3)c3ccc(OCCN4CCOCC4)cc3C2=O)cc1 [Example 4, 4-(6-(2-morpholinoethoxy)-1-oxo-3-phenyl-1H-inden-2-yl)benzamide] | 128%
4 | N#Cc1cccc(C2=C(c3ccccc3)c3ccc(OCCN4CCOCC4)cc3C2=O)c1 [Example 5, 3-(6-(2-morpholinoethoxy)-1-oxo-3-phenyl-1H-inden-2-yl)benzonitrile] | 44%
5 | COc1ccc(C2=C(c3ccccc3)c3ccc(OCCN4CCOCC4)cc3C2=O)cn1 [Example 6, 6-(2-morpholinoethoxy)-2-(6-methoxypyridin-3-yl)-3-phenyl-1H-inden-1-one] | 63%
6 | O=C1C(c2ccc(F)nc2)=C(c2ccccc2)c2ccc(OCCN3CCOCC3)cc21 [Example 9, 6-(2-morpholinoethoxy)-2-(6-fluoropyridin-3-yl)-3-phenyl-1H-inden-1-one] | 87%
7 | O=C1C(c2ccc(-c3ccccc3)cc2)=C(c2ccccc2)c2ccc(OCCN3CCOCC3)cc21 [Example 10, 6-(2-morpholinoethoxy)-2-(4-(phenyl)phenyl)-3-phenyl-1H-inden-1-one] | 172%
8 | Cc1ccc(C2=C(c3ccccc3)c3ccc(OCCN4CCOCC4)cc3C2=O)cc1 [Example 11, 6-(2-morpholinoethoxy)-3-phenyl-2-p-tolyl-1H-inden-1-one] | 649%
9 | N#Cc1ccccc1C1=C(c2ccccc2)c2ccc(OCCN3CCOCC3)cc2C1=O [Example 12, 2-(6-(2-morpholinoethoxy)-1-oxo-3-phenyl-1H-inden-2-yl)benzonitrile] | 365%
10 | O=C1C(c2ccc(C(F)(F)F)cc2)=C(c2ccccc2)c2ccc(OCCN3CCOCC3)cc21 [Example 13, 6-(2-morpholinoethoxy)-2-(4-(trifluoromethyl)phenyl)-3-phenyl-1H-inden-1-one] | 151%
11 | CC(=O)Nc1cccc(C2=C(c3ccccc3)c3ccc(OCCN4CCOCC4)cc3C2=O)c1 [Example 14, N-(3-(6-(2-morpholinoethoxy)-1-oxo-3-phenyl-1H-inden-2-yl)phenyl)acetamide] | 131%
12 | O=C1C(c2cncc3ccccc23)=C(c2ccccc2)c2ccc(OCCN3CCOCC3)cc21 [Example 15, 6-(2-morpholinoethoxy)-2-(isoquinolin-4-yl)-3-phenyl-1H-inden-1-one] | 65%
13 | O=C1C(c2ccc3ccccc3c2)=C(c2ccccc2)c2ccc(OCCN3CCOCC3)cc21 [Example 16, 6-(2-morpholinoethoxy)-2-(naphthalen-3-yl)-3-phenyl-1H-inden-1-one] | 713%
14 | O=C1C(c2ccc(F)cc2)=C(c2ccccc2)c2ccc(OCCN3CCOCC3)cc21 [Example 17, 6-(2-morpholinoethoxy)-2-(4-fluorophenyl)-3-phenyl-1H-inden-1-one] | 236%
15 | O=C1C(c2ccc(F)c(F)c2)=C(c2ccccc2)c2ccc(OCCN3CCOCC3)cc21 [Example 18, 6-(2-morpholinoethoxy)-2-(3,4-difluorophenyl)-3-phenyl-1H-inden-1-one] | 349%
16 | Cc1ccc(C2=C(c3ccccc3)c3ccc(OCCN4CCOCC4)cc3C2=O)cc1F [Example 19, 6-(2-morpholinoethoxy)-2-(3-fluoro-4-methylphenyl)-3-phenyl-1H-inden-1-one] | 220%
17 | Nc1cccc(C2=C(c3ccccc3)c3ccc(OCCN4CCOCC4)cc3C2=O)c1 [Example 20, 6-(2-morpholinoethoxy)-2-(3-aminophenyl)-3-phenyl-1H-inden-1-one] | 283%
18 | O=C1C(c2ccc(Oc3ccccc3)cc2)=C(c2ccccc2)c2ccc(OCCN3CCOCC3)cc21 [Example 21, 6-(2-morpholinoethoxy)-2-(4-phenoxyphenyl)-3-phenyl-1H-inden-1-one] | 130%
19 | COc1ccc(C2=C(c3ccccc3)c3ccc(OCCN4CCOCC4)cc3C2=O)cc1 [Example 22, 6-(2-morpholinoethoxy)-2-(4-methoxyphenyl)-3-phenyl-1H-inden-1-one] | 169%
20 | O=C1C(c2ccc(Cl)cc2)=C(c2ccccc2)c2ccc(OCCN3CCOCC3)cc21 [Example 23, 6-(2-morpholinoethoxy)-2-(4-chlorophenyl)-3-phenyl-1H-inden-1-one] | 162%
21 | O=C1C(c2cccnc2)=C(c2ccc(F)cc2)c2ccc(OCCN3CCOCC3)cc21 [Example 24, 6-(2-morpholinoethoxy)-3-(4-fluorophenyl)-2-(pyridin-3-yl)-1H-inden-1-one] | 121%
22 | O=C1C(c2cncnc2)=C(c2ccc(F)cc2)c2ccc(OCCN3CCOCC3)cc21 [Example 25, 6-(2-morpholinoethoxy)-3-(4-fluorophenyl)-2-(pyrimidin-5-yl)-1H-inden-1-one] | 105%
23 | O=C1C(c2ccc(F)c(F)c2)=C(c2ccc(F)cc2)c2ccc(OCCN3CCOCC3)cc21 [Example 26, 6-(2-morpholinoethoxy)-2-(3,4-difluorophenyl)-3-(4-fluorophenyl)-1H-inden-1-one] | 79%
24 | O=C1C(c2ccc(C(F)(F)F)cc2)=C(c2ccc(F)cc2)c2ccc(OCCN3CCOCC3)cc21 [Example 27, 6-(2-morpholinoethoxy)-2-(4-(trifluoromethyl)phenyl)-3-(4-fluorophenyl)-1H-inden-1-one] | 75%
25 | O=C1C(c2cccnc2)=C(c2ccc(Cl)cc2)c2ccc(OCCN3CCOCC3)cc21 [Example 28, 6-(2-morpholinoethoxy)-3-(4-chlorophenyl)-2-(pyridin-3-yl)-1H-inden-1-one] | 134%
26 | O=C1C(c2ccc(F)c(F)c2)=C(c2ccc(Cl)cc2)c2ccc(OCCN3CCOCC3)cc21 [Example 29, 6-(2-morpholinoethoxy)-3-(4-chlorophenyl)-2-(3,4-difluorophenyl)-1H-inden-1-one] | 84%
27 | O=C1C(c2cncnc2)=C(c2ccc(Cl)cc2)c2ccc(OCCN3CCOCC3)cc21 [Example 30, 6-(2-morpholinoethoxy)-3-(4-chlorophenyl)-2-(pyrimidin-5-yl)-1H-inden-1-one] | 150%
28 | O=C1C(c2ccc(C(F)(F)F)cc2)=C(c2ccc(C(F)(F)F)cc2)c2ccc(OCCN3CCOCC3)cc21 [Example 33, 6-(2-morpholinoethoxy)-2,3-bis(4-(trifluoromethyl)phenyl)-1H-inden-1-one] | 65%
29 | O=C1C(c2ccc(F)c(F)c2)=C(c2ccc(C(F)(F)F)cc2)c2ccc(OCCN3CCOCC3)cc21 [Example 34, 6-(2-morpholinoethoxy)-3-(4-(trifluoromethyl)phenyl)-2-(3,4-difluorophenyl)-1H-inden-1-one] | 78%
30 | O=C1C(c2cncnc2)=C(c2ccc(C(F)(F)F)cc2)c2ccc(OCCN3CCOCC3)cc21 [Example 35, 6-(2-morpholinoethoxy)-3-(4-(trifluoromethyl)phenyl)-2-(pyrimidin-5-yl)-1H-inden-1-one] | 79%
